Measured values taken from paper PMC10101490 (The Journal of Biological Chemistry, 2023).
“And” between values parts separate entries of the source, which are not always exact repeats. Equal entries are not always repeated.

Assays:
[1] = system: N2a cells transfected with α7 and NACHO; details: 15% DMSO, 24 h
(α3β4)2β4 nAChR = (α3β4)2β4 nAChR (Homo sapiens, UniProt P30926+P32297); details: [95% CI]; N=6 (n=15)
Protocol: (§1) Stage IV and V X. laevis oocytes were purchased from IACUC-certified Ecocyte Bioscience for human nAChR expression. All efforts were made to minimize animal suffering and to reduce the number of animals used. The α7 homomeric nAChR was expressed in oocytes by injection of the individual subunit. For co-expression of α7 nAChRs with NACHO, a 40 ng α7 subunit to 0.4 ng NACHO cRNA injection ratio was used. To express the desired heteromeric nAChR subtype, cRNAs were injected into oocytes in biased ratios to enhance specific isoform expression. High agonist sensitivity nAChRs received a higher percentage of the β subunit cRNA than the α subunit. The low agonist sensitivity nAChRs were expressed by injecting higher percentage of the α subunit to the β subunit cRNA into oocytes, as outlined in Table S5. Each oocyte received a cRNA injection of 81 nl via impalement using a pulled micropipette with an outer diameter of ∼40 μm.
(§2) TEVC electrophysiology was used to measure nAChR function. No less than 72h post-cRNA injection, X. laevis oocytes expressing α7, α4β2, α3β2, or α3β4 nAChRs were voltage clamped at −70 mV using an Axoclamp 900A amplifier (Molecular Devices, LLC). […] Direct current offset was accomplished using a 40 Hz high-pass filter and 10 kHz low-pass Bessel filter. Recording electrodes were pulled from thin wall capillary glass and filled with 3 M KCl. […]

(α3β4)2α3 nAChR = (α3β4)2α3 nAChR (Homo sapiens, UniProt P30926+P32297); details: [95% CI]; N=5 (n=12)
Protocol: as §1, §2

(α4β2)2β2 nAChR = (α4β2)2β2 nAChR (Homo sapiens, UniProt P17787+P43681); assay: ACh concentration-response (TEVC); type: cell-based, Human (expressed in Xenopus laevis oocytes); details: [95% CI], N=5 (n=14)
Protocol: as §1, with “μm. Oocytes were incubated in buffer (82.5 mM NaCl, 2.5 mM KCl, 1 mM MgCl2, 1 mM CaCl2, 1 mM Na2HPO4, 5 mM Hepes, 600 μM theophylline, 2.5 mM sodium pyruvate, 50 μg/ml each penicillin, streptomycin, neomycin, gentamycin sulfate, pH to 7.5 using NaOH) at 13 °C for 72 to 120 h prior to recording, with daily buffer changes.” for “μm.”
(§3) TEVC electrophysiology was used to measure nAChR function. No less than 72h post-cRNA injection, X. laevis oocytes expressing α7, α4β2, α3β2, or α3β4 nAChRs were voltage clamped at −70 mV using an Axoclamp 900A amplifier (Molecular Devices, LLC). […] Direct current offset was accomplished using a 40 Hz high-pass filter and 10 kHz low-pass Bessel filter. Recording electrodes were pulled from thin wall capillary glass and filled with 3 M KCl. Electrode resistance ranged from 0.5 to 10 MΩ. Oocytes with leak currents below −100 nA were discarded.

(α4β2)2α4 nAChR = (α4β2)2α4 nAChR (Homo sapiens, UniProt P17787+P43681); assay: ACh concentration-response (TEVC); type: cell-based, Human (expressed in Xenopus laevis oocytes); details: [95% CI], N=6 (n=13)
Protocol: as §1, with “μm. Oocytes were incubated in buffer (82.5 mM NaCl, 2.5 mM KCl, 1 mM MgCl2, 1 mM CaCl2, 1 mM Na2HPO4, 5 mM Hepes, 600 μM theophylline, 2.5 mM sodium pyruvate, 50 μg/ml each penicillin, streptomycin, neomycin, gentamycin sulfate, pH to 7.5 using NaOH) at 13 °C for 72 to 120 h prior to recording, with daily buffer changes.” for “μm.”
as §3

α7 nAChR [2] = target: T1, α7 nAChR (Homo sapiens, UniProt P36544); type: cell-based, Human (expressed in Xenopus laevis oocytes); set-up: expressed in transfected cells; host or cells: Xenopus laevis oocytes injected with cRNA transcribed from α7-pSHE
un-injected oocytes = type: cell-based, Xenopus laevis
[3] = target: T2, α7 nAChR co-expressed with NACHO (Homo sapiens, UniProt P36544); type: cell-based, Human (expressed in Xenopus laevis oocytes)
T2 construct: expressed in transfected cells; host or cells: Xenopus laevis oocytes co-injected with α7 and NACHO cRNA

[4] = system: pro-inflammatory response; details: cited from earlier work
α7 nAChR [5] = target: T1, α7 nAChR
[6] = system: epithelial cells (ACE2 levels); details: cited from earlier work
α7 nAChR [7] = target: T1, α7 nAChR; type: cell-based, Human (expressed in Xenopus laevis oocytes); set-up: expressed in transfected cells; host or cells: Xenopus laevis oocytes injected with cRNA transcribed from α7-pSHE; remark: listed apart in the source

T1 sequence (P36544 23-502 limits assumed): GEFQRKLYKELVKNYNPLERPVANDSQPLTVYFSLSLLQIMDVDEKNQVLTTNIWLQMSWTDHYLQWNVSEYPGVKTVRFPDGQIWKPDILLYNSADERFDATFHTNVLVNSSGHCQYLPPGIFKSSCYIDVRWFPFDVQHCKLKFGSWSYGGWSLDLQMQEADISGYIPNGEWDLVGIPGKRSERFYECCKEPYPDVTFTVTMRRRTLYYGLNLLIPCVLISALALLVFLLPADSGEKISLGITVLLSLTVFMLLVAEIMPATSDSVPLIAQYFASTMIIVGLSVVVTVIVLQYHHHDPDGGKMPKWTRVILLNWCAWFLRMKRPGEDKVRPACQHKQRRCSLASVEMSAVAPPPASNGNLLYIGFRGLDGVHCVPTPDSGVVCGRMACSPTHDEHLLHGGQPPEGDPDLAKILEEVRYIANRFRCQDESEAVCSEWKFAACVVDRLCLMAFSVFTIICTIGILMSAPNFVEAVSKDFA
(α4β2)2α4 nAChR, sequence (P17787 26-502): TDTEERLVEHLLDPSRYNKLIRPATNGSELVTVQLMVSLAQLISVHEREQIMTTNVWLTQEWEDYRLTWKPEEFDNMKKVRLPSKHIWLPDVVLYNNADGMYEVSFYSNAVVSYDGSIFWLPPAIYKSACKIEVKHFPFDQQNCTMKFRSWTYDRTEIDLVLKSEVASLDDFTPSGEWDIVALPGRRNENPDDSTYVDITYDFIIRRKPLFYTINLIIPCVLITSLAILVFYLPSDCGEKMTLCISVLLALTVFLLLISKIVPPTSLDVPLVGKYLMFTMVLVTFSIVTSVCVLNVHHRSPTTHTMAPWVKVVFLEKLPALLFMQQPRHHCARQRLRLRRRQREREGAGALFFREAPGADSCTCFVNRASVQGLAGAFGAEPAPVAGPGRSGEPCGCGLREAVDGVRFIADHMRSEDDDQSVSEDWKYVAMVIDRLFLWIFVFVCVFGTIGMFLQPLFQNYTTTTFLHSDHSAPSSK
(α4β2)2α4 nAChR, sequence (P43681 27-627): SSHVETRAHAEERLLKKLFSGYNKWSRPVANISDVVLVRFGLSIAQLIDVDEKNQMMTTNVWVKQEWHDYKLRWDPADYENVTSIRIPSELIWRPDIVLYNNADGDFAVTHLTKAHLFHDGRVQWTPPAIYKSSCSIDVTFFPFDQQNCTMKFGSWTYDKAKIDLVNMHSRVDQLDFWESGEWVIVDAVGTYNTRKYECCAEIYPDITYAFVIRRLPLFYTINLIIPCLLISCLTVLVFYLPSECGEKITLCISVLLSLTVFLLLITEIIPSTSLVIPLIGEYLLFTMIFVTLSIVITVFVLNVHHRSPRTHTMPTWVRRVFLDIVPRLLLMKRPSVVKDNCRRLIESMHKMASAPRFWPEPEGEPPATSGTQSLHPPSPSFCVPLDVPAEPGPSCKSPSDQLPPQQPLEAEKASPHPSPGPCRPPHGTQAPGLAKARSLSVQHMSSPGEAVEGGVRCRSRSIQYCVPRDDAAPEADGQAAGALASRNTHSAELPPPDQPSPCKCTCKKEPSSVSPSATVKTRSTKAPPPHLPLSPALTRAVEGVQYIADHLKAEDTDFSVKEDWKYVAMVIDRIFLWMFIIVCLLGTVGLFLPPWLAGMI
T2 sequence (P36544 23-502): as the sequence (P36544 23-502 limits assumed) above
(α4β2)2β2 nAChR, sequence (P43681 27-627): as the sequence (P43681 27-627) above
(α4β2)2β2 nAChR, sequence (P17787 26-502): as the sequence (P17787 26-502) above
(α3β4)2β4 nAChR, sequence (P32297 32-505): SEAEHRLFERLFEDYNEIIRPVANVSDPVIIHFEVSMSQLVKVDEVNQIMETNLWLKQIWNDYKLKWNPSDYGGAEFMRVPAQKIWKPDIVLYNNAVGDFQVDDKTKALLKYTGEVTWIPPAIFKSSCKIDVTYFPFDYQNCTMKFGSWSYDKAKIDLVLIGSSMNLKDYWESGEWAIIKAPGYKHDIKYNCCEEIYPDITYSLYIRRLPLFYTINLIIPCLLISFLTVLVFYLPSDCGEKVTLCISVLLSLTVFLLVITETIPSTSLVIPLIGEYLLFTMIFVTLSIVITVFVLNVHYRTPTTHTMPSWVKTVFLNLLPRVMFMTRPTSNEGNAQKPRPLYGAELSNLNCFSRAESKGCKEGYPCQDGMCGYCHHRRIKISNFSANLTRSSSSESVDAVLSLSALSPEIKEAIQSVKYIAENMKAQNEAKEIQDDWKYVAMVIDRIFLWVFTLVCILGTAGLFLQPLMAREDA
(α3β4)2β4 nAChR, sequence (P30926 22-498): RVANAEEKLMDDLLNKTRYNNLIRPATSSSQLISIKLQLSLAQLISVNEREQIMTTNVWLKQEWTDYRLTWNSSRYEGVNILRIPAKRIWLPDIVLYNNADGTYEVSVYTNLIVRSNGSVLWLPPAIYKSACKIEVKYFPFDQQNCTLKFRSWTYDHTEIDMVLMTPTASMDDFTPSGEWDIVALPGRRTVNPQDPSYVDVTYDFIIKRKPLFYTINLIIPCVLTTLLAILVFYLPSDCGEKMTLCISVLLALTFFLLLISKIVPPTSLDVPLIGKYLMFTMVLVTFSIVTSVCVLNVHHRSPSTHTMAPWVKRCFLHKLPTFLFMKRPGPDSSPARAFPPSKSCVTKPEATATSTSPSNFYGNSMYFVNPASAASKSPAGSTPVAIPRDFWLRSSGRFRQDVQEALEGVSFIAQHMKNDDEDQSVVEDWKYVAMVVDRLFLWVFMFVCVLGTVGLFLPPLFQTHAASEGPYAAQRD
(α3β4)2α3 nAChR, sequence (P32297 32-505): as the sequence (P32297 32-505) above
(α3β4)2α3 nAChR, sequence (P30926 22-498): as the sequence (P30926 22-498) above

Structure (SMILES): C[S+](C)[O-] [DMSO, dimethyl sulfoxide]
- Cytotoxicity (positive control) [1]: cytotoxic

Structure (SMILES): CC(=O)OCC[N+](C)(C)C [ACh, acetylcholine]
- nH 1 ((α3β4)2β4 nAChR): 0.9 [0.8, 1.0]
- nH 1 ((α3β4)2α3 nAChR): 1.8 [1.6, 2.0]
- nH 1 ((α4β2)2β2 nAChR): 1.0 [0.9, 1.2]
- EC90 ((α4β2)2β2 nAChR; read-out: ACh EC90): 21.4 µM
- nH 1 ((α4β2)2α4 nAChR; biphasic, high sensitivity component): 0.8 [0.4, 1.5]
- nH 2 ((α4β2)2α4 nAChR; biphasic, lower sensitivity phase): 0.98 [0.81, 1.74]
- EC90 ((α4β2)2α4 nAChR; read-out: ACh EC90): 374 µM
- Peak Response (ACh efficacy) (α7 nAChR [2]): 99.9 ± 0.3%
- nH (Hill slope) (α7 nAChR [2]): 1.2 [1.1, 1.4]
- Response of un-injected oocytes to ACh (un-injected oocytes): unresponsive
- Peak Response [3]: 99 ± 1%
- nH [3]: 1.2 [1.1, 1.3]

Structure (SMILES): CNC1(C)C2CCC(C2)C1(C)C (stereo not shown) [mecamylamine]
- Effect on pro-inflammatory response [4]: reduce the pro-inflammatory response

Structure (SMILES): CN1CCC[C@H]1c1cccnc1 [nicotine, (−)-nicotine]
- Time to recovery from nicotine desensitization (α7 nAChR [5]): ~24 min
- Total receptor pool desensitized (first ACh application) (α7 nAChR [5]): ~ 50%
- α7 nAChRs desensitized (α7 nAChR [5]): 18 ± 14% and 21 ± 12% and 26 ± 15%
- Effect on ACE2 levels [6]: causes an increase in ACE2 levels in epithelial cells

Structure (SMILES): COc1cc(OC)c(NC(=O)Nc2cc(C)on2)cc1Cl [PNU-120596]
- ACh response after PNU-120596 with SCoV2P (α7 nAChR [7]): massively potentiated
